Measured values taken from patent publication US20170349550A1, “ACTIVE COMPOUND COMBINATIONS” (BAYER CROPSCIENCE AKTIENGESELLSCHAFT, priority 2014, published 2017).
“And” between values parts separate entries of the source, which are not always exact repeats. Identical values can stand only once. Like-named read-outs stand apart in the source and are kept apart here.

How the values were obtained:
[1] = test system: Blumeria graminis f.sp. hordei; experiment: in vivo preventive Blumeria test (barley); details: 7 days after inoculation
[2] = test system: Fusarium nivale (var. majus); experiment: in vivo preventive Fusarium nivale (var. majus) test (wheat); details: 5 days after inoculation
Description: After the spray coating has been dried, the plants are slightly injured by using a sandblast and afterwards they are sprayed with a conidia suspension of Fusarium nivale (var. majus). The plants are placed in the greenhouse under a translucent incubation cabinet at a temperature of approximately 10° C. and a relative atmospheric humidity of approximately 100%.
The test is evaluated 5 days after the inoculation.

Alternaria solani = experiment: in vivo preventive test on Alternaria test (tomatoes); details: 3 days after inoculation
Description: After the spray coating has dried on, the plants are inoculated with an aqueous spore suspension of Alternaria solani.
The test is evaluated 3 days after the inoculation.

Venturia inaequalis = experiment: in vivo preventive test on Venturia test (apples); details: 0.5 ppm a.i., 10 days after inoculation
Description: The plants are then placed in a greenhouse at approximately 21° C. and a relative atmospheric humidity of approximately 90%.
The test is evaluated 10 days after the inoculation.

Septoria tritici = experiment: in vivo preventive Septoria tritici test (wheat); details: 21 days after inoculation
Description: After the spray coating has been dried, the plants are sprayed with a spore suspension of Septoria tritici. […] The plants are placed in the greenhouse at a temperature of approximately 15° C. and a relative atmospheric humidity of approximately 80%.
The test is evaluated 21 days after the inoculation.

Leptosphaeria nodorum = experiment: in vivo preventive Leptosphaeria nodorum test (wheat); details: 8 days after inoculation
Description: After the spray coating has been dried, the plants are sprayed with a spore suspension of Leptosphaeria nodorum. […] The plants are placed in the greenhouse at a temperature of approximately 25° C. and a relative atmospheric humidity of approximately 80%.
(§1) The test is evaluated 8 days after the inoculation.

Phakopsora pachyrhizi = experiment: in vivo preventive test on Phakopsora test (soybeans); details: 7 days after inoculation
Description: After the spray coating has dried on, the plants are inoculated with an aqueous spore suspension of the causal agent of soybean rust (Phakopsora pachyrhizi) and stay for 24 h without light in an incubation cabinet at approximately 24° C. and a relative atmospheric humidity of 95%. The plants remain in the incubation cabinet at approximately 24° C. and a relative atmospheric humidity of approximately 80% and a day/night interval of 12 h.
The test is evaluated 7 days after the inoculation.

Fusarium graminearum = format: in vivo; details: barley, 5 days after inoculation
Puccinia triticina = experiment: in vivo preventive Puccinia triticina test (wheat); details: 8 days after inoculation
Description: After the spray coating has been dried, the plants are sprayed with a spore suspension of Puccinia triticina.
as §1

Uromyces appendiculatus = experiment: in vivo preventive test on Uromyces test (beans); details: 0.5 ppm a.i., 10 days after inoculation
Description: The plants are then placed in a greenhouse at approximately 21° C. and a relative atmospheric humidity of approximately 90%. The test is evaluated 10 days after the inoculation.

Pyrenophora teres = experiment: in vivo preventive Pyrenophora teres test (barley); details: 8 days after inoculation
Description: After the spray coating has been dried, the plants are sprayed with a spore suspension of Pyrenophora teres.
as §1

Compound	Efficacy in % found ([1]; 50 ppm a.i.)	Efficacy in % found ([2]; 12.5 ppm a.i.)	Efficacy in % found (Alternaria solani; 1 ppm a.i.)	Efficacy in % found (Septoria tritici; 25 ppm a.i.)	Efficacy in % found (Septoria tritici; 50 ppm a.i.)	Efficacy in % found (Leptosphaeria nodorum; 50 ppm a.i.)	Efficacy in % found (Phakopsora pachyrhizi; 0.25 ppm a.i.)	Efficacy in % found (Phakopsora pachyrhizi; 0.5 ppm a.i.)	Efficacy in % found (Fusarium graminearum; 50 ppm a.i.)	Efficacy in % found (Puccinia triticina; 12.5 ppm a.i.)	Efficacy in % found (Leptosphaeria nodorum; 100 ppm a.i.)	Efficacy in % found ([1]; 25 ppm a.i.)	Efficacy in % found (Puccinia triticina; 25 ppm a.i.)	Efficacy in % found (Puccinia triticina; 50 ppm a.i.)	Efficacy in % found (Septoria tritici; 100 ppm a.i.)	Efficacy in % found (Pyrenophora teres; 25 ppm a.i.)	Efficacy in % found (Pyrenophora teres; 50 ppm a.i.)	Efficacy in % found (Pyrenophora teres; 100 ppm a.i.)	other results
CC[C@@H]1CC(C)(C)c2cccc(NC(=O)c3cccnc3C(F)F)c21 [(I-4), 2-(difluoromethyl)-N-[(3R)-3-ethyl-1,1-dimethyl-2,3-dihydro-1H-inden-4-yl]nicotinamide]	0%	13%	40%	75%	75%	0%	33% and 65%	75%	–	–	–	–	–	–	–	–	–	–	Efficacy in % found ([2]; 25 ppm a.i.): 13%; Efficacy in % found (Venturia inaequalis): 16%
CCCC1CC(C)(C)c2cccc(NC(=O)c3cccnc3C(F)F)c21 (centres unmarked) [(I-5), 2-(difluoromethyl)-N-(1,1-dimethyl-3-propyl-2,3-dihydro-1H-inden-4-yl)nicotinamide]	–	–	–	–	–	38%	43% and 60%	78% and 89%	29%	30%	38%	–	–	–	–	–	–	–	Efficacy in % found (Fusarium graminearum; 25 ppm a.i.): 0%; Efficacy in % found (Uromyces appendiculatus): 95%
CCC[C@@H]1CC(C)(C)c2cccc(NC(=O)c3cccnc3C(F)F)c21 [(I-6), 2-(difluoromethyl)-N-[(3R)-1,1-dimethyl-3-propyl-2,3-dihydro-1H-inden-4-yl]nicotinamide]	–	–	27%	–	75%	14%	60% and 75%	–	–	–	–	40%	–	–	–	–	–	–	Efficacy in % found (Alternaria solani; 0.25 ppm a.i.): 16%
cyproconazole [1.5]	–	–	–	–	50%	0%	–	–	–	–	–	–	70%	80%	17%	25% and 22%	25%	0%	Efficacy in % found (Leptosphaeria nodorum; 12.5 ppm a.i.): 0%
difenoconazole [1.7]	60% and 71% and 40%	0%	–	–	0%	29% and 43%	–	–	0%	0%	13%	–	20%	50%	–	–	13%	–	Efficacy in % found (Fusarium graminearum; 100 ppm a.i.): 0%; Efficacy in % found (Leptosphaeria nodorum; 25 ppm a.i.): 29%; Efficacy in % found (Pyrenophora teres; 12.5 ppm a.i.): 22%
propiconazole [1.40]	–	–	–	0%	0%	–	–	–	–	–	25%	43% and 80%	25%	0% and 10%	38%	22%	13% and 25%	25%	–
